The values that follow come from the NIST ThermoML archive (doi:10.1021/je500092v).

Where “and” joins values, the source holds several entries; their conditions need not be identical. Equal entries are not always repeated. Numbers after ± are expanded uncertainties.

For data set [1] the following is noted: Liquid, Ebulliometric method (Recirculating still).
Data set [2] in a line: refractive index (Na D-line) (dimensionless). The conditions noted are these: 293.15 K; 101.33 kPa; Liquid; Standard Abbe refractometry.

The vapor or sublimation pressure is the equilibrium pressure above the liquid or solid. The refractive index is the speed of light in vacuum divided by its phase velocity in the sample. `CN1CCCC1=O` [N-methylpyrrolidone]: the “vapor or sublimation pressure” value was 0.13 ± 0.13 kPa in data set [1] (313.15 K); 0.51 ± 0.13 kPa in data set [1] (335.15 K); 0.79 ± 0.26 kPa in data set [1] (343.15 K); 2.18 ± 0.26 kPa and 2.17 ± 0.26 kPa in data set [1] (363.15 K); 4.98 ± 0.27 kPa in data set [1] (380.15 K); 10 ± 0.34 kPa in data set [1] (399.53 K). In addition, the “vapor or sublimation pressure” value in data set [1] (425.91 K) is given as 25 ± 0.61 kPa; in data set [1] (448.97 K), 50 ± 1.1 kPa. Further, in data set [2], the refractive index is reported as 1.4703 ± 0.0004.
Regarding `CCCCO` [butan-1-ol], the figures for the “vapor or sublimation pressure” value in data set [1] (337.8 K), in data set [1] (355.78 K) and in data set [1] (371.94 K) were 10 ± 0.23 kPa, 25 ± 0.44 kPa and 50 ± 0.78 kPa, respectively. Besides, in data set [2], the refractive index is recorded as 1.3992 ± 0.0004.
As for `C=CCCCC` [hex-1-ene], the figures for the “vapor or sublimation pressure” value in data set [1] (313.15 K), in data set [1] (335.15 K) and in data set [1] (363.15 K) were 45.01 ± 0.48 kPa, 96.56 ± 0.7 kPa and 218.59 ± 1.2 kPa, respectively. In data set [2], the refractive index came out at 1.3838 ± 0.0004.
